Test results as given in PMC12428139, “The Functional State of Thermoplasma acidophilum Pyruvate Kinase Relies on an Extra Carboxyl-Terminal Sequence” (International Journal of Molecular Sciences, 2025).
“And” between values parts separate entries of the source, which are not always exact repeats. Equal values may be shown once. Read-outs that look alike come from different tables or passages of the source. Values belong to the molecule of their own block, whether it stands above or below them.

How the values were obtained:
WT-ThaPK = target: T1, WT-ThaPK (Thermoplasma acidophilum, UniProt P32044); test: LDH/NADH coupled assay, dead-end inhibition, global fit; format: biochemical
T1 construct: gene Ta0896; full length (1635 bp gene, 544 residues), N-terminal His6 tag and thrombin site (20 residues) kept, pET15b, E. coli BL21(DE3) Codon Plus-RIL
Text: LDH/NADH coupled assay, dead-end inhibition, global fit on WT-ThaPK

[1] = target: ECTS truncated-ThaPK (Thermoplasma acidophilum pyruvate kinase lacking the extra C-terminal sequence) (Thermoplasma acidophilum) (UniProt P32044); test: native gel or EMSA; 1D Blue Native PAGE, linear 4-18% acrylamide gradient, 4 °C, 50 µg protein per well; bands excised and resolved by 2D SDS-PAGE; masses from regression on standards, triplicate gels
[2] = target: the molecule itself; test: SEC; Superdex 200 (10/300), 50 mM HEPES pH 7.5, 150 mM NaCl, 500 µg of enzyme loaded, calibrated with BIORAD gel filtration standards

Molecule: Nc1ncnc2c1ncn2[C@@H]1O[C@H](COP(=O)(O)O)[C@@H](O)[C@H]1O [AMP]
Ki (WT-ThaPK; read-out: Ki (AMP)): 3300 ± 300 µM

B1: Thermoplasma acidophilum pyruvate kinase, wild type (WT-ThaPK) (enzyme, UniProt P32044 1-544, looked up)
chain: MKTKIVATIGPASSSPEIMKQMIDNGLSLVRINSAHADIKDVSKITQMVRSINRDVGIMIDLKGPELRTGEFAGGTLKISSGKDYVMGKDIVLNNMNVLSAVQVGDRILMSDGEVSFEVESTDPFTIRALNDGVLRDRSRVNIPGRFIELGTITDRDRAFIREGIADGVDFFALSFVQKSENVDSLRDFVIDSGGDQYIISKIETKSGLDNIEEIVKSSDGIMVARGDLGVELPLKEVVLAQKHIIKTAHEDGDFTIVATQVLESMVNNSSPTRAEISDITNAIIDNADALMLSEESAIGKYPVQAVRTLKEVSDYVEDKVSFDSSYYFKGNTIAYSVARAAKILSDDIKSDGIVALTHTGSTVRMISSLRPKAMVYAATVSESLARKLNIYFGVLPLHMEGNAEDLSFSEIMEYIVRSGRFADGSKLVMTSGDPYFTFGGTNDVKVAVVGKFIGRGYSFGDSLSGTATYGTKGDILMSEDGRIPGTDFRAFIFTSDIKPSLMSSLKGKTVVTKARLVRQIKEGERIYIDGNTGIILMASPDQK
notes: pyruvate kinase of Thermoplasma acidophilum; synthetic gene of 1635 bp cloned NdeI/BamHI in pET15b; last residue K544; monomer 59,147.48 Da plus 20 extra residues (His6 tag and thrombin site, 2193.26 Da) that thrombin could not cleave; The 20 additional N-terminal residues from pET15b (His6 tag and thrombin cleavage site) stayed on the protein in all experiments; also called wild-type enzyme; …
stoichiometry N [2]: 4

Continued, values first:

Ki (WT-ThaPK; read-out: Ki (Oxalate)): 44 ± 1 µM
Molecule: O=C(O)C(=O)O [oxalate]

stoichiometry N [1]: 2 and 3
Molecule: ECTS truncated-ThaPK (Thermoplasma acidophilum pyruvate kinase lacking the extra C-terminal sequence) (from UniProt P32044 1-450) (domain or fragment)
